Results taken from PubChem BioAssay (NCI).
Several values for one entry are separate records, joined by “and”; a condition that tells them apart may be missing. Equal values may be shown once.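 Interpolation was linear, between the two tested concentrations surrounding the appropriate level; five concentrations were tested over 48 hours in 96-well plates. GI50: concentration for 50% inhibition of growth. TGI: total growth inhibition.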

Tests used:
Assay in all cases: DTP human tumour cell line panel, 48 h
[1] = tested on: SF-268 CNS
[2] = tested on: SNB-19 CNS
[3] = tested on: COLO 205 colon
[4] = tested on: SK-MEL-5 melanoma
[5] = tested on: SF-295 CNS
[6] = tested on: SNB-75 CNS
[7] = tested on: HL-60(TB) leukemia
[8] = tested on: UACC-257 melanoma
[9] = tested on: HOP-92 NSCLC

Row | Compound | TGI [1] [µM] | TGI [2] [µM] | TGI [3] | TGI [4] | TGI [5] [µM] | TGI [6] | TGI [7] [µM] | TGI [8] [µM] | TGI [9] [µM] | GI50 [1] | GI50 [9] [µM] | GI50 [2] | GI50 [3] | GI50 [4] | GI50 [5] | GI50 [6] | GI50 [7] | GI50 [8] [µM]
1 | COc1cc(C(C)c2cc3c(cc2OCCNC(=O)COc2cc4c(cc2C(C)c2cc(OC)c(OC)c(OC)c2)OCO4)OCO3)cc(OC)c1OC (centres undefined) | > 100 | > 100 | > 100 µM | > 100 µM | > 100 | > 100 µM | > 100 | > 100 |  |  |  |  |  |  |  |  |  | 
2 | COc1ccc2c(c1)NC1(O)c3ccccc3C(=O)C21O (centres undefined) | > 100 | > 100 | > 100 µM | > 100 µM | > 100 | > 100 µM | > 100 | > 100 | > 100 |  |  |  |  |  |  |  |  | 
3 | N/N=C(\c1nc2ccc(Cl)cc2[nH]c1=O)C(O)c1ccc(Cl)c(Cl)c1 (centres undefined) | > 100 | > 100 | > 100 µM | > 100 µM | > 100 | > 100 µM | > 100 | > 100 | > 100 |  |  |  |  |  |  |  |  | 
4 | CCCN(CCC)C(=O)c1nc(N)nc(-c2ccc(OC)cc2)c1-c1ccc(OC)cc1 | > 100 | > 100 | > 100 µM | > 100 µM | > 100 | > 100 µM | > 100 | > 100 | > 100 |  |  |  |  |  |  |  |  | 
5 | CC(C)(C)N/N=C(\C(=O)Nc1nc(=S)[nH][nH]1)C1C(=O)Nc2ccccc2S1=O (centres undefined) | > 100 | > 100 | > 100 µM | > 100 µM | > 100 | > 100 µM | > 100 | > 100 |  |  |  |  |  |  |  |  |  | 
6 | O=C(Nc1ccccc1-c1nn(CN2CCNCC2)c(=S)n(CN2CCNCC2)c1=O)C(F)(F)F | 41.8 | 48.1 | 31 µM | 31 µM | 76.5 | 52.9 µM | 43.2 | 31 | 45.8 |  |  |  |  |  |  |  |  | 
7 | Cc1nc(/C=C2\C(=O)C=Cc3ccccc32)c(O)o1 | > 100 | > 100 | > 100 µM | > 100 µM | > 100 | 40.4 µM | > 100 | > 100 | > 100 |  |  |  |  |  |  |  |  | 
8 | Cc1[nH]c(N)nc(=S)c1CCC(=O)O | > 100 | > 100 | > 100 µM | > 100 µM | > 100 |  | > 100 | > 100 | > 100 |  |  |  |  |  |  |  |  | 
9 | CC(=O)NNc1nc(C)c(C(=O)/C=C/c2ccc(Cl)cc2)s1 | > 100 | > 100 | > 100 µM | > 100 µM | > 100 | > 100 µM | > 100 | > 100 | > 100 |  |  |  |  |  |  |  |  | 
10 | COc1ccc2oc(-c3ccc(OC)c(OC)c3OC)cc(=O)c2c1 | > 100 | > 100 | > 100 µM |  | > 100 | > 100 µM | 55 | > 100 | > 100 |  |  |  |  |  |  |  |  | 
11 | O=S(=O)(N=NC=C1c2ccccc2N(O)c2ccccc21)c1ccc(Cl)cc1 | > 100 | > 100 | > 100 µM | > 100 µM | > 100 | 78.2 µM | > 100 | > 100 | > 100 |  |  |  |  |  |  |  |  | 
12 | COC1CCC(OC)C(C2(C3CC(OC)CCC3OC)OC(=O)c3ccccc32)C1 (centres undefined) | > 100 | > 100 | > 100 µM | > 100 µM | > 100 | > 100 µM | 45.1 | > 100 | > 100 |  |  |  |  |  |  |  |  | 
13 | COC(=O)/C(C#N)=C(\N)C(Cl)(Cl)Cl | 14.7 | > 100 | 4.72 µM | 3.82 µM | 19.4 | 16 µM | 1.32 | 12.6 | 9.85 |  |  |  |  |  |  |  |  | 
14 | COC(=O)C1CC(OC(C)=O)C=C2C(=O)CCC21 (centres undefined) | 38.8 | 60.3 | 34.4 µM | 67.9 µM |  | 48 µM | 29.5 | 37 |  |  |  |  |  |  |  |  |  | 
15 | CCOC(=O)C12C(C(=O)OC)=C(C)N(NC(=O)Nc3ccccc3)C1(N)N(NC(=O)Nc1ccccc1)C(C)=C2C(=O)OC (centres undefined) | > 86.7 | > 100 | > 56.2 µM | 39.3 µM | 60 | > 100 µM | 48.8 | 62.9 | 66.3 |  |  |  |  |  |  |  |  | 
16 | COc1cc(NS(C)(=O)=O)ccc1NCc1c2ccccc2nc2ccccc12 | > 100 | > 100 | > 100 µM |  | > 100 | > 100 µM | 47.4 | > 100 | 92.7 |  |  |  |  |  |  |  |  | 

Row | Compound | TGI [1] [µM] | TGI [2] [µM] | TGI [3] | TGI [4] | TGI [5] [µM] | TGI [6] | TGI [7] [µM] | TGI [8] [µM] | TGI [9] [µM] | GI50 [1] | GI50 [9] [µM] | GI50 [2] | GI50 [3] | GI50 [4] | GI50 [5] | GI50 [6] | GI50 [7] | GI50 [8] [µM]
17 | CCOc1ccc(NCC2CC/C(=C\c3ccccc3OC)C2=O)cc1 (centres undefined) | 20.8 | 30 | 5.59 µM | 30.3 µM | 32.3 | 31.1 µM | > 23.7 | 20 | 34 |  |  |  |  |  |  |  |  | 
18 | Cc1cccc(C)c1N1C(=O)C(=O)C(c2nc3ccccc3s2)/C(=N/NC(=O)c2ccccc2O)C1=O (centres undefined) | > 68.8 | > 79.8 | > 86.9 µM | > 53.7 µM | > 100 | 69.5 µM | 43.1 | 68.2 | > 67.5 |  |  |  |  |  |  |  |  | 
19 | C=C1C(=O)O[C@H]2[C@H]1CC/C(Cn1cc(-c3ccc(F)cc3)nn1)=C\CC[C@@]1(C)O[C@@H]21 | 3.4 | 13 | 1.67 µM | 3.12 µM | 19.1 | 2.5 µM | 2.76 | 3 | 1.12 | 1.69 µM | 0.349 | 3.39 µM | 0.459 µM | 1.74 µM | 5.73 µM | 1.25 µM | 0.728 µM | 1.47
20 | Cc1ccc(S(=O)(=O)c2ccc(C)cc2[N+](=O)[O-])cc1 | > 100 | > 100 | > 100 µM | 76.8 µM | > 100 | > 100 µM | > 100 | > 100 | > 100 |  |  |  |  |  |  |  |  | 
21 | CC(C(=O)c1ccccc1)C1(O)C(=O)Nc2ccc(Cl)cc21 (centres undefined) | > 100 | > 100 | > 100 µM |  | > 100 | > 100 µM |  | > 100 | > 100 |  |  |  |  |  |  |  |  | 
22 | CC1=NOC(=O)/C1=C/c1ccc([N+](=O)[O-])cc1 | > 100 | > 100 | > 100 µM | > 100 µM | > 100 | > 100 µM | > 100 | > 100 | > 100 |  |  |  |  |  |  |  |  | 
23 | C=CCC1(C(=O)OC(C)(C)C)C(OC)=C(C(=O)OC(C)(C)C)C2C1C(C(=O)OC(C)(C)C)=C(OC)C2(CC=C)C(=O)OC(C)(C)C (centres undefined) | > 100 | > 100 | > 100 µM |  | > 100 | > 100 µM | > 100 | > 100 | > 100 |  |  |  |  |  |  |  |  | 
24 | COC(=O)Nc1nc2ccc(C(=O)c3ccccc3)cc2[nH]1 | > 100 | > 100 | 1.12 µM and 3.74 µM | 14 µM and 1.47 µM | > 60.5 | > 100 µM and 17 µM | 0.636 | > 100 | > 85.9 | 1.76 µM and 0.535 µM |  | 0.587 µM and 0.471 µM | 0.331 µM and 0.274 µM | 0.35 µM and 0.215 µM | 0.4 µM and 0.255 µM | 0.256 µM and 0.0866 µM | 0.255 µM and 0.233 µM | 38
25 | CC1CC(C)C2OC2(C)C[C@H](C)C(=O)NC(C)C(=O)N(C)[C@H](Cc2c(Br)[nH]c3ccccc23)C(=O)N[C@@H](c2ccc(O)cc2)CC(=O)O1 (some centres undefined) |  | 0.544 | 0.145 µM | 17.1 µM | 31.3 | 2.32 µM | 0.783 | 13.3 | 0.638 |  |  |  |  |  |  |  |  | 
26 | Cc1ccc(S(=O)(=O)OC(COC(=O)c2ccccc2)C(OS(=O)(=O)c2ccc(C)cc2)C(OS(=O)(=O)c2ccc(C)cc2)C(COC(=O)c2ccccc2)OS(=O)(=O)c2ccc(C)cc2)cc1 (centres undefined) | > 100 | > 100 | > 100 µM | > 100 µM | > 100 | 90 µM | > 100 | > 100 | > 100 |  |  |  |  |  |  |  |  | 
27 | Cc1nc(N)nc(N)c1CCCc1ccccc1 | > 100 | > 100 | > 100 µM | > 100 µM | > 100 | > 100 µM | 71.7 | > 100 | 46.6 |  |  |  |  |  |  |  |  | 
28 | C1CN(P2(N3CC3)=NP(N3CC3)(N3CC3)=NP(N3CC3)(N3CC3)=N2)CCO1 (centres undefined) | > 100 | > 100 | > 100 µM | > 100 µM | > 100 | > 100 µM | > 100 | > 100 | > 100 |  |  |  |  |  |  |  |  | 
29 | Cc1cc(C)c(C(=O)O)c(SSc2cc(C)cc(C)c2C(=O)O)c1 | > 100 | > 100 | > 100 µM | > 100 µM | > 100 |  | > 100 | > 100 | > 100 |  |  |  |  |  |  |  |  | 
30 | CCCCc1c2cnccc2c(CCCC)c2c1[nH]c1ccccc12 | 47.1 | 22.1 | 27.4 µM |  | 20.2 | 23.6 µM |  | 36 | 47.7 |  |  |  |  |  |  |  |  | 
31 | NCCNC(=O)c1cccc2cc3ccccc3nc12 | 3.73 | 19.1 |  | > 23.2 µM | > 20.9 | 27.7 µM |  | 8.81 | > 100 |  |  |  |  |  |  |  |  | 
32 | Cc1ccc2nc3cc(C)c(=O)cc-3sc2c1 | > 100 | > 100 | > 100 µM | > 100 µM | > 100 | 84.9 µM | 64.7 | > 100 | > 100 |  |  |  |  |  |  |  |  | 
